What was measured:
Format in all cases: in vivo
[1] = tested on: HFD-fed obese C57BL/6 wt mice; assay: TUDCA and leptin in HFD-induced obesity model
Description: (a) Hypothalamic PERK phosphorylation (Thr980) after 21 days of vehicle or TUDCA (150 mg/kg/day) treatment. Following a five-day pretreatment with TUDCA (150 mg/kg/day) or vehicle, nine-ten week old ob/ob mice were treated either with leptin (1 mg/kg/day) or vehicle. (b) Body weight (g), (c) % decrease in body weight, (d) daily food intake of the ob/ob mice during 18 days of treatment period with the indicated regimens. (e) Blood glucose (mg/dl) levels at the 18th day of treatment. Metabolic cage studies were performed; (f) CO2 production (ml/kg/hr), (g) O2 consumption (ml/kg/hr), (h) Respiratory exchange ratio (VCO2/VO2), (i) X-axis ambulatory activity, (j) Heat generation (kcal/hr). Dexa scan analysis of (k) total fat amount (g), (l) fat % and (m) lean body mass (g). C57BL/6 male wt mice were kept on HFD feeding for 32 weeks and following a five day acclimation period were pretreated with TUDCA (150 mg/kg/day) for five days. At the end of pretreatment period intraperitoneal vehicle and leptin (1 mg/kg/day) treatments were started. (n) Body weight (g), (o) % decrease in bodyweight of the HFD-fed mice during the 16-day treatment. (n=6 for VEH, n=7 for Lep, n=7 for TUD, n=8 for TUD+Lep group). Error bars are ±S.E.M., P values are determined by Student's t-test. (*p<0.05, **p<0.01, ***p<0.001)
We next tested the efficacy of TUDCA as a leptin sensitizer in the HFD-induced obesity model. In this experiment we used 35 weeks old and C57BL/6 wt mice, which were kept on HFD-feeding for 32 weeks. We divided the mice into two groups for TUDCA and TUDCA-leptin co-treatment. Body weight of the mice in this cohort was between 35-52 g. We specifically chose the mice with the highest bodyweight for TUDCA and leptin co-treatment group to investigate whether leptin will become effective in these severely obese mice when administered along with the TUDCA. The initial body weight of the TUDCA group was 38.33±1.16 (g) and TUDCA+leptin group was 48.46±1.82 (g) (FIG. 5n). Following an initial five days acclimation period mice were treated with TUDCA (150 mg/kg/day) for […], and subsequently either vehicle or […] treatment was started. […] Following the acclimation, TUDCA pretreatment was started and following the five-day pretreatment, vehicle and leptin (1 mg/kg/day) administration were initiated. TUDCA alone led to a significant decrease in bodyweight by reducing the initial weight from 36.16±0.99 (g) to 32.61±0.65 during the 16 days of treatment period (FIG. 5n). This reduction corresponds to an 8.60% decrease in bodyweight (FIG. 5o). […] Indeed, in our experience TUDCA acts as a much more powerful chemical chaperone when compared to PBA, as doses of TUDCA necessary for reducing ER stress in cellular systems^25 or as a leptin-sensitizing agent is much lower than PBA. […]

[2] = tested on: Stat3 Tyr705 phosphorylation; assay: Leptin-stimulated Stat3 Tyr705 phosphorylation in hypothalamus of wt lean and ob/ob mice; conditions: leptin 0.1 mg/kg IP, six hour fasting, 30 minutes
Description: Nine-week old lean wt and ob/ob mice were orally treated with either PBA (1 g/kg/day) or vehicle (VEH) for 26 days and PERK (Thr980) phosphorylation is examined in the hypothalamus extracts with direct immunoblotting. (B) Ten week-old wt lean and ob/ob mice were intraperitoneally injected with leptin (0.1 mg/kg) after six-hour starvation. Hypothalami were removed 30 minutes after the injections, and pStat3^Tyr705 and total Stat3 levels were examined. (C) Nine-week old lean wt and ob/ob mice were orally treated with PBA (1 g/kg/day) for 10 days. Following the pretreatment period, leptin-deficient ob/ob mice were either administered with VEH or with different doses of leptin through the intraperitoneal route. The effect of VEH or PBA administration on (C) bodyweight (g), (D) percent decrease in bodyweight and (E) 24-hour food intake (n=3 for VEH and n=4 PBA-treated group). Effect of 5 mg/kg/day leptin administration on (F) bodyweight, (G) percent decrease in bodyweight and (H) 24-hour food intake in VEH- or PBA-treated ob/ob mice (n=3 for VEH and n=4 PBA-treated group). Analysis of the same parameters (body weight, percent decrease in bodyweight and 24-hour food intake) in (I, J, K) 1 mg/kg/day and (L, M, N) 0.1 mg/kg/day leptin-treated mice (n=3 for VEH and n=4 PBA-treated group). Data presented as means±SEM (*p<0.05, **p<0.01, ***p<0.001). […]

[3] = tested on: hypothalamus of lean mice; assay: Tunicamycin infusion to the third ventricle of lean mice; conditions: leptin 1 mg/kg IP 5½ hours after third ventricle tunicamycin or vehicle infusion, 30 minutes after leptin
Text: Having shown that ER stress is increased in the hypothalamus of HFD-fed mice and causes leptin resistance in the cellular systems, we sought to investigate whether leptin action could also be blocked by directly inducing ER stress in brains of lean mice.
Next, we investigated the expression patterns of leptin resistance markers such as neuropeptide Y (NPY) and agouti related peptide (AgRP) in the vehicle- and tunicamycin-infused mice. […] In addition, to exclude the possibility that tunicamycin infusion leads to a decay in mRNA degradation of NPY and AgRP due to a possible toxic effect, we analyzed mRNA levels of IR and insulin receptor substrate 1 (IRS1).
To assess whether increased ER stress and activation of UPR signaling would create leptin resistance and block the leptin-stimulated Stat3 activation in the hypothalamus, leptin (1 mg/kg/day) was intraperitoneally administered 5½ hours after tunicamycin infusion. The experiment was ended by dissection of the hypothalami 30 minutes after leptin administration. […] In contrast, administration of tunicamycin to the third ventricle and creation of ER stress, in complete accordance with our data obtained from 293 cells, blocked activation of Stat3 in the hypothalamus (data not shown).

[4] = mice on HFD 32 weeks, TUDCA 150 mg/kg/day with vehicle or leptin 1 mg/kg/day, 16 days

Compound: C[C@H](CCC(=O)NCCS(=O)(=O)O)[C@H]1CC[C@H]2[C@@H]3[C@@H](O)C[C@@H]4C[C@H](O)CC[C@]4(C)[C@H]3CC[C@]12C [TUDCA, tauroursodeoxycholic acid]
- initial body weight of the group (before acclimation) ([1]; C57BL/6 wt mice on HFD 32 weeks): 38.33 ± 1.16 g
- body weight after treatment [1, 4]: 32.61 ± 0.65 g
- decrease in bodyweight [1, 4]: 8.60%
- initial weight at start of treatment period ([1]; mice on HFD 32 weeks, after acclimation): 36.16 ± 0.99 g

Compound: leptin: adipocyte-derived hormone that suppresses appetite
- Stat3 Tyr705 phosphorylation in the hypothalamus ([2]; ob/ob mice): completely absent
- Stat3 Tyr705 phosphorylation in the hypothalamus ([2]; wt lean mice): responded well
- Stat3 phosphorylation (activation) in the hypothalamus [3]: marked increase

Source: patent publication US9283277B2, “Methods and compositions for the treatment of obesity” (Children's Medical Center Corporation, priority 2008, dated 2016)
